The record followed here is ChEMBL document CHEMBL1201862, “PubChem BioAssay data set” (2004).

Among the test systems are KM-20L2; HOP-18; LXFL 529; DMS-114; M19-MEL; DMS-273; RXF 631; XF498.
Common to all, as to assay: growth of human tumour cells (NCI), 48 h

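Exposure lasted 48 hours, with cells grown in 96-well plates and compounds tested at five concentrations. At the GI50, growth is halved.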 Activity calls are given as the source filed them. Rule as the data show it: active = GI50 up to about 1.1 µM and inactive = higher.

Turning to `COC(=O)C(C(=O)C(=O)Nc1ccccc1OC)c1csc(-n2nc(-c3ccccc3)cc2-c2ccccc2)n1` (stereo not given), the GI50 in the assay with KM-20L2 is > 100 µM (inactive); in the assay on HOP-18, 14.8 µM (inactive); in the assay on LXFL 529 it was > 100 µM (inactive); in the assay with DMS-114, 49.5 µM (inactive); in the assay with M19-MEL it was > 100 µM (inactive); with DMS-273, > 100 µM (inactive). Also, the GI50 in the assay on RXF 631 and in the assay on XF498 was > 100 µM (inactive) throughout.

Consider `O=C1[C@@H]2C(c3ccncc3)=NO[C@@H]2C(=O)N1c1ccc(Cc2ccc(N3C(=O)[C@H]4C(c5ccncc5)=NO[C@H]4C3=O)cc2)cc1`, for which the GI50 was > 100 µM (inactive) in the assay on KM-20L2; > 100 µM (inactive) in the assay on HOP-18; 29.3 µM (inactive) in the assay with LXFL 529; > 100 µM (inactive) in the assay on DMS-114; > 100 µM (inactive) with M19-MEL; > 100 µM (inactive) in the assay with DMS-273. In the assay on RXF 631, the GI50 was > 100 µM (inactive).

`CC(O)C(N/C=C1/N=C(c2ccccc2)OC1=O)C(=O)O` (stereo not given): the GI50 in the assay on KM-20L2, in the assay on HOP-18, with LXFL 529, with DMS-114, with M19-MEL and in the assay on DMS-273 was > 100 µM (inactive) in each case. Moreover, the GI50 with RXF 631 and with XF498 was > 100 µM (inactive) in each case.

On to `O=[N+]([O-])c1cccnc1S(=O)(=O)c1ccccc1`, for which the GI50 in the assay on KM-20L2 was 12.8 µM (inactive); in the assay on HOP-18, 12.9 µM (inactive); with LXFL 529 it was 2.4 µM (inactive); in the assay with DMS-114, 3.18 µM (inactive); with M19-MEL, 13.5 µM (inactive); in the assay on DMS-273, 7.87 µM (inactive). Also, the figures for the GI50 in the assay with RXF 631 and in the assay with XF498 were 2.86 µM (inactive) and 13.1 µM (inactive), respectively.

Regarding `OC1=CN=C(c2ccccc2)Oc2ccccc21`, the GI50 in the assay on KM-20L2, with LXFL 529, in the assay on DMS-114, in the assay with M19-MEL, in the assay on DMS-273 and in the assay with RXF 631 was > 100 µM (inactive) throughout.

Turning to `Sc1nnc(-c2ccnc(-c3nnc(S)[nH]3)c2)[nH]1`, the GI50 with KM-20L2, with HOP-18, in the assay with LXFL 529, with DMS-114, in the assay with M19-MEL and in the assay with DMS-273 was > 100 µM (inactive) throughout. Further, the GI50 with XF498 was > 79.1 µM (inactive).

As to `OC(CCl)CN1CC[N+]2(CC1)CC[N+]1(CCN(CC(O)CCl)CC1)CC2` (stereo not given) [PROSPIDIUM CHLORIDE], the GI50 in the assay on KM-20L2 is > 50 µM (inactive); with HOP-18, > 50 µM (inactive); in the assay with LXFL 529 it was > 50 µM (inactive); in the assay on DMS-114 it was 41.6 µM (inactive); with M19-MEL, > 50 µM (inactive); in the assay with DMS-273, > 50 µM (inactive). The GI50 in the assay with XF498 is > 50 µM (inactive).

As for `C/C(=C\CNc1ncnc2c1ncn2C1CCCCO1)COP(=O)(O)O` (stereo not given), the GI50 in the assay with KM-20L2, in the assay on HOP-18, in the assay on LXFL 529, with DMS-114, with M19-MEL and in the assay with DMS-273 was > 100 µM (inactive) throughout. For the same molecule, the GI50 in the assay with RXF 631 and with XF498 was > 100 µM (inactive) throughout.

In the case of `O=S(=O)(C1=CC(S(=O)(=O)c2ccccc2)CN(Cc2ccccc2)C1c1cccc2ccccc12)c1ccccc1` (stereo not given), the GI50 in the assay on KM-20L2, in the assay with DMS-114, with M19-MEL, in the assay on DMS-273 and with RXF 631 was > 69 µM (inactive) in each case.

Regarding `C[n+]1c2ccccc2cc2c(CNC(CCCNC(=N)N)C(=O)O)cccc21` (stereo not given), the GI50 in the assay with KM-20L2 was 0.641 µM (active); in the assay on HOP-18, 2.05 µM (inactive); in the assay on LXFL 529, 0.733 µM (active); with DMS-114, 0.232 µM (active); with M19-MEL it was 0.413 µM (active); with DMS-273, 1.59 µM (inactive). Further, the GI50 was 3.37 µM (inactive) in the assay with RXF 631 and 2.07 µM (inactive) in the assay on XF498.

As to `O=C(O)Cn1c(=O)[nH]c(=O)c2[nH]cnc21`, the GI50 in the assay on KM-20L2, in the assay on HOP-18, in the assay on LXFL 529, with DMS-114, with M19-MEL and in the assay on DMS-273 was > 100 µM (inactive) in each case. Also, the GI50 with RXF 631 was > 100 µM (inactive).

For the molecule `O=c1[nH]c(=O)n(C2CC(O)C(CO)O2)cc1C#Cc1ccc(F)cc1` (stereo not given), the GI50 in the assay with KM-20L2, in the assay with HOP-18, in the assay with LXFL 529, in the assay with DMS-114, in the assay on M19-MEL and in the assay on DMS-273 was > 100 µM (inactive) in each case. The GI50 with XF498 is > 100 µM (inactive).

Turning to `Cc1ccc(NC(=O)CSc2nnc(-c3ccc(/N=C\c4ccc(Cl)cc4)cc3)o2)cc1`, the GI50 in the assay with KM-20L2, in the assay on HOP-18, in the assay with LXFL 529, in the assay with DMS-114, in the assay with M19-MEL and with DMS-273 was > 100 µM (inactive) in each case. Moreover, the GI50 in the assay with XF498 was > 100 µM (inactive).

Take `CCOC(=O)C=C1CCN(C(=O)c2ccccc2)CC1`: the GI50 in the assay on KM-20L2, in the assay on HOP-18, in the assay with LXFL 529, with M19-MEL, in the assay with DMS-273 and in the assay on RXF 631 was > 100 µM (inactive) in each case. Moreover, in the assay with XF498, the GI50 was > 100 µM (inactive).
